Test results published in article PMC4786016 (Environmental science & technology, 2015).
Counter-ions that a name gives are not always drawn. Like-named read-outs stand apart in the source and are kept apart here.

Experiments:
human PPARγ1 [1] = target: T1, human PPARγ1 (Homo sapiens, UniProt P37231)
human PPARγ1 [2] = target: T1, human PPARγ1; assay: GeneBLAzer PPARγ1 non-DA reporter gene assay; details: for Emax: HEK293, read-out: ATVmax: maximal activation% of the tested compounds relative to rosiglitazone
PPARγ2 = details: PPARγ2, U2OS reporter assay; cited from earlier work
PPARγ = details: cited from earlier work
HEK293 cells = assay: Alamar Blue cell viability assay; details: high doses
[3] = HEK293 PPARγ1 reporter, 15% of rosiglitazone maximal response
[4] = HEK293 PPARγ1 reporter, 20% of rosiglitazone maximal response

Compound | NOAEL (human PPARγ1 [1]) [µM] | ATVmax: maximal activation% of the tested compounds relative to rosiglitazone (human PPARγ1 [2]) [%] | EC15 (concentration inducing 15% activation) (human PPARγ1 [2]) [µM] | [ATVmax]: concentration of the tested compounds to induce the maximal activation% (human PPARγ1 [2]) [µM] | efficacy (qualitative, based on ATVmax) (human PPARγ1 [2]) | EC20 (concentration inducing 20% activation) (human PPARγ1 [2]) [µM] | other results
Oc1c(Br)cc(Br)cc1Br [2,4,6-TBP, 2,4,6-tribrominated phenol] | 0.8 | 18 | 5.89 | 7 | + (key: + 7–20%; ++ 20–30%; +++ 30–40%; ++++ 40–50%; +++++ >50%) | – | –
c1ccc(OP(Oc2ccccc2)Oc2ccccc2)cc1 [TPPi, triphenyl phosphite] | 1.2 | – | – | – | – | – | –
[Cl][Sn]([c]1ccccc1)([c]1ccccc1)[c]1ccccc1 [TPT, triphenyltin chloride] | 0.0003 | 54 | 0.004 | 0.33 | +++++ (key: + 7–20%; ++ 20–30%; +++ 30–40%; ++++ 40–50%; +++++ >50%) | 0.01 | –
Brc1ccc(Oc2ccc(Br)cc2Br)c(Br)c1 [BDE47, 2,2′,4,4′-tetrabromodiphenyl ether] | 0.8 | – | 5.2 | 7 | ++ (key: + 7–20%; ++ 20–30%; +++ 30–40%; ++++ 40–50%; +++++ >50%) | 7 | 5% induction concentration (PPARγ2): 10 µM; Emax (human PPARγ1 [2]): 20%
CCCCC(CC)COC(=O)/C=C/C(=O)OCC(CC)CCCC (centres unmarked) [BEHF, bis(2-ethylhexyl) fumarate] | – | – | – | – | – | – | Emax (human PPARγ1 [2]): < 8%; PPARγ1 activation (in words) (human PPARγ1 [2]; reporter assay): did not display any obvious PPARγ1 activation
CN(CCOc1ccc(CC2SC(=O)NC2=O)cc1)c1ccccn1 (centres unmarked) [Rosi., rosiglitazone (positive control), reference compound] | – | – | – | – | – | – | NOAEL (human PPARγ1 [2]; HEK293 PPARγ1 reporter, nonobservable adverse effect level): 0.00001 µM
CC(C)(C)c1ccc(OP(=O)(Oc2ccc(C(C)(C)C)cc2)Oc2ccc(C(C)(C)C)cc2)cc1 [TBPP, tris (4,tert-butyl-phenyl) phosphate] | 0.4 | 12 | – | 11 | + (key: + 7–20%; ++ 20–30%; +++ 30–40%; ++++ 40–50%; +++++ >50%) | – | –
CCCCOC(=O)c1ccccc1C(=O)OCCCC [DBP, dibutyl phthalate] | 0.4 | – | – | – | – | – | Emax (human PPARγ1 [2]): 23%; [ATVmax]: concentration of the tested compounds to induce the maximal activation% (human PPARγ1 [2]; HEK293 PPARγ1 reporter): 33 µM; efficacy (qualitative, based on ATVmax) (human PPARγ1 [2]; HEK293 PPARγ1 reporter): ++ (++ 20–30%); EC15 (concentration inducing 15% activation) (human PPARγ1 [2]; [3]): 6.73 µM; EC20 (concentration inducing 20% activation) (human PPARγ1 [2]; [4]): 13.6 µM
Oc1c(Br)ccc(Oc2ccc(Br)cc2Br)c1Br [3-OH-BDE47, 3-hydroxide-2,2′,4,4′-tetrabromodiphenyl ether (metabolite)] | 0.8 | 42 | 2.01 | 7 | ++++ (key: + 7–20%; ++ 20–30%; +++ 30–40%; ++++ 40–50%; +++++ >50%) | 2.993 | PPARγ binding potency (in words) (PPARγ): comparable binding potency to rosiglitazone; concentration at which the compound began to activate PPARγ1 (human PPARγ1 [2]): 0.8 µM
Oc1cc(Br)cc(Br)c1Oc1ccc(Br)cc1Br [6-OH-BDE47, 6-hydroxide-2,2′,4,4′-tetrabromodiphenyl ether (metabolite)] | – | <8 | – | – | – | – | PPARγ1 activation (in words) (human PPARγ1 [2]): no activation was observed
tri-isopropylated triaryl phosphates [Tri-ITP] | 1.2 | 41 | 5.7 | 33 | ++++ (key: + 7–20%; ++ 20–30%; +++ 30–40%; ++++ 40–50%; +++++ >50%) | 7.76 | concentration at which the compound began to activate PPARγ1 (human PPARγ1 [2]): 1.2 µM
CCCCC/C=C/C=C1/C(=O)C=C[C@@H]1C/C=C\CCCC(=O)O [15d-PJG2, 15-Deoxy-D12,14-prostaglandin J2 (endogenous ligands), reference compound] | 0.01 | 85 | 0.51 | 33 | +++++ (key: + 7–20%; ++ 20–30%; +++ 30–40%; ++++ 40–50%; +++++ >50%) | 0.74 | concentration at which the compound began to activate PPARγ1 (human PPARγ1 [2]): 0.01 µM
tert-butyl phenyl diphenyl phosphate (mixture) [BPDP] | 0.4 | – | – | – | – | – | –
CCCCOC(=O)c1ccccc1C(=O)OCc1ccccc1 [BzBP, benzylbutyl phthalate] | 0.13 | 34 | 2.94 | 10 | +++ (key: + 7–20%; ++ 20–30%; +++ 30–40%; ++++ 40–50%; +++++ >50%) | 4.81 | –
isopropylated triaryl phosphates (mixture) [ITP] | 1.2 | – | – | – | – | – | –
di-isopropylated triaryl phosphates [Di-ITP] | 1.2 | 16 | 3.25 | 3.6 | + (key: + 7–20%; ++ 20–30%; +++ 30–40%; ++++ 40–50%; +++++ >50%) | – | cell viability (in words) (HEK293 cells): Highly reduced cell viability
Firemaster 550 (mixture) [FM550] | 1.2 | – | – | – | – | – | –
Oc1cc(Cl)ccc1Oc1ccc(Cl)cc1Cl [TCS, triclosan] | – | – | – | – | – | – | PPARγ binding potency (in words) (PPARγ): moderate binding potency; PPARγ1 activation (in words) (human PPARγ1 [2]): did not initiate any activation of PPARγ1; Emax (human PPARγ1 [2]): < 8%
monoisopropylated triaryl phosphates [mono-ITP] | 1.2 | 15 | 3.6 | 3.6 | + (key: + 7–20%; ++ 20–30%; +++ 30–40%; ++++ 40–50%; +++++ >50%) | – | cell viability (in words) (HEK293 cells): Highly reduced cell viability
CC(C)COC(=O)c1ccccc1C(=O)OCC(C)C [DiBP, diisobutyl phthalate] | 0.4 | – | 4.47 | 33 | ++ (key: + 7–20%; ++ 20–30%; +++ 30–40%; ++++ 40–50%; +++++ >50%) | 11.1 | Emax (human PPARγ1 [2]): 25%
tri(2-butoxyethanol) phosphate [TBOEP] | – | 13 | – | 11 | + (key: + 7–20%; ++ 20–30%; +++ 30–40%; ++++ 40–50%; +++++ >50%) | – | PPARγ binding potency (in words) (PPARγ): significant binding potential at the highest dose level tested
CCCCC(CC)COC(=O)c1ccccc1C(=O)OCC(CC)CCCC (centres unmarked) [DEHP, bis(2-ethylhexyl) phthalate] | – | – | – | – | – | – | PPARγ1 activation (in words) (human PPARγ1 [2]; reporter assay): no activation was observed
CC(C)(c1cc(Cl)c(O)c(Cl)c1)c1cc(Cl)c(O)c(Cl)c1 [TCBPA, 3,5,3′,5′-tetrachlorobisphenol A] | 0.09 | – | – | – | – | – | [ATVmax]: concentration of the tested compounds to induce the maximal activation% (human PPARγ1 [2]; HEK293 PPARγ1 reporter): 7 µM; efficacy (qualitative, based on ATVmax) (human PPARγ1 [2]; HEK293 PPARγ1 reporter): +++++ (+++++ >50%); EC15 (concentration inducing 15% activation) (human PPARγ1 [2]; [3]): 0.23 µM; EC20 (concentration inducing 20% activation) (human PPARγ1 [2]; [4]): 0.47 µM; ATVmax: maximal activation% of the tested compounds relative to rosiglitazone (human PPARγ1 [2]; HEK293 PPARγ1 reporter, normalized to maximal response of rosiglitazone): 52%
CCCCC(CC)COC(=O)c1c(Br)c(Br)c(Br)c(Br)c1C(=O)O (centres unmarked) [TBMEHP, mono-(2-ethyhexyl) tetrabromophthalate (metabolite)] | 0.13 | 40 | 0.53 | 3.3 | ++++ (key: + 7–20%; ++ 20–30%; +++ 30–40%; ++++ 40–50%; +++++ >50%) | 0.78 | cell viability (in words) (HEK293 cells): reduced viability at higher dosing levels
O=P(Oc1ccccc1)(Oc1ccccc1)Oc1ccccc1 [TPP, triphenyl phosphate] | 0.4 | 43 | 2.12 | 11 | ++++ (key: + 7–20%; ++ 20–30%; +++ 30–40%; ++++ 40–50%; +++++ >50%) | 3.27 | concentration at which the compound began to activate PPARγ1 (human PPARγ1 [2]): about 0.4 μM
O=C(O)c1cc(Br)c(Br)c(Br)c1Br [TBBA, 2,3,4,5-tetrabromobenzoic acid (metabolite)] | 1.2 | 20 | 8.16 | – | ++ (key: + 7–20%; ++ 20–30%; +++ 30–40%; ++++ 40–50%; +++++ >50%) | 33 | –
Oc1c(I)cc(I)cc1I [2,4,6-TIP, 2,4,6-triiodinated phenol] | 0.4 | 20 | 8.72 | 11 | ++ (key: + 7–20%; ++ 20–30%; +++ 30–40%; ++++ 40–50%; +++++ >50%) | 11 | –
